The target of experiment [1] is Inhibitor of nuclear factor kappa-B kinase subunit epsilon (Homo sapiens, UniProt Q14164). In words: Navigating the Kinome. Panel member name: IKBKE. It is filed as functional.
Another experiment addresses Focal adhesion kinase 1 (Homo sapiens, UniProt Q05397). It is filed as functional.
The target of experiment [2] is Casein kinase I isoform alpha (Homo sapiens, UniProt P48729). It is filed as functional.
The target of experiment [3] is Serine/threonine-protein kinase TBK1 (Homo sapiens, UniProt Q9UHD2). In words: Navigating the Kinome. Panel member name: TBK1. It is filed as functional.
Chain of Serine/threonine-protein kinase TBK1 (Q9UHD2 whole entry): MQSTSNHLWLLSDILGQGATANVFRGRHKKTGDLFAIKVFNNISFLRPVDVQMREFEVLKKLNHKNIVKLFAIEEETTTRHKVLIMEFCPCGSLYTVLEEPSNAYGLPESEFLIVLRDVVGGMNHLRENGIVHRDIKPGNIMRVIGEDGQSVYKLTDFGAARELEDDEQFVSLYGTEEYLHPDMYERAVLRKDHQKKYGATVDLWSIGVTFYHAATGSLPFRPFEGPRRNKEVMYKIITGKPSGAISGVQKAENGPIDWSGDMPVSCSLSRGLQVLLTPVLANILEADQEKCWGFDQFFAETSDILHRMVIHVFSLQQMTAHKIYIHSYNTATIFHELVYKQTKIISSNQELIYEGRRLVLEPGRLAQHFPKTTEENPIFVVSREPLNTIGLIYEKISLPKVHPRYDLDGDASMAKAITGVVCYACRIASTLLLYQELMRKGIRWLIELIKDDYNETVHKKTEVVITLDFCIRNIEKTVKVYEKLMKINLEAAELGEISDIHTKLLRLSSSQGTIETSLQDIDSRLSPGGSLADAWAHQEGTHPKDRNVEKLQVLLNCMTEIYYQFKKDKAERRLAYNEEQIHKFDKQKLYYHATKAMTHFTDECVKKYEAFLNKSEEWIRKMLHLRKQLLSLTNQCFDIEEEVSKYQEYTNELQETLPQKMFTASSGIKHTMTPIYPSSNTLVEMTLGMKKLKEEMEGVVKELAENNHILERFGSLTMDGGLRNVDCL
Experiment [4] deals with Platelet-derived growth factor receptor beta (Homo sapiens, UniProt P09619). It is filed as functional.
Experiment [5] addresses Calcium/calmodulin-dependent protein kinase type II subunit delta (Homo sapiens, UniProt Q13557). It is filed as functional.
Experiment [6] concerns the target Serine/threonine-protein kinase TAO1 (Homo sapiens, UniProt Q7L7X3). It is filed as functional.
Experiment [7] addresses Mitogen-activated protein kinase kinase kinase kinase 2 (Homo sapiens, UniProt Q12851). It is filed as functional.
For experiment [8], the target named is ALK tyrosine kinase receptor (Homo sapiens, UniProt Q9UM73). It is filed as functional.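 Further: ALK tested as one member of a kinase panel screen.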
Experiment [9] addresses Tyrosine-protein kinase receptor TYRO3 (Homo sapiens, UniProt Q06418). It is filed as functional.
In experiment [10] the target is Leucine-rich repeat serine/threonine-protein kinase 2 (Homo sapiens, UniProt Q5S007). It is filed as functional.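 Further: value from a broad kinome-wide panel profiling study in which LRRK2 was one of the kinases tested.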
For experiment [11], the target named is Leukocyte tyrosine kinase receptor (Homo sapiens, UniProt P29376). In words: Navigating the Kinome. Panel member name: LTK. It is filed as functional.
The target in experiment [12] is Platelet-derived growth factor receptor alpha (Homo sapiens, UniProt P16234). In words: Navigating the Kinome. Panel member name: PDGFRA. It is filed as functional.
Experiment [13] deals with Calcium/calmodulin-dependent protein kinase type II subunit alpha (Homo sapiens, UniProt Q9UQM7). In words: Navigating the Kinome. Panel member name: CAMK2A. It is filed as functional.
Chain of Calcium/calmodulin-dependent protein kinase type II subunit alpha (Q9UQM7 whole entry): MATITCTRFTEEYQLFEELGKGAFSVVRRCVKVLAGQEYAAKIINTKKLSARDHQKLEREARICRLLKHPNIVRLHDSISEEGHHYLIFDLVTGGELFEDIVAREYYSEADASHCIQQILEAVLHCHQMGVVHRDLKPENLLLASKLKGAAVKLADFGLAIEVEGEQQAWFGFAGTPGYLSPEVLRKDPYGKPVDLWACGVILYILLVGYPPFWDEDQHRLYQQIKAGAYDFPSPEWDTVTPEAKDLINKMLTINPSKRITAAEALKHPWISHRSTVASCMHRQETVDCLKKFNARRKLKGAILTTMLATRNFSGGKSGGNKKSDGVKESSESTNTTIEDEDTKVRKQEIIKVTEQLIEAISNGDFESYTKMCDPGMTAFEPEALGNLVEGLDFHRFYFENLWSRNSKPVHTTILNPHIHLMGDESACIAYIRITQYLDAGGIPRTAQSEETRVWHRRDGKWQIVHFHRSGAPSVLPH
The target in experiment [14] is cAMP-dependent protein kinase catalytic subunit PRKX (Homo sapiens, UniProt P51817). It is filed as functional.
The target of experiment [15] is Cyclin-dependent kinase 8 (Homo sapiens, UniProt P49336). In words: Navigating the Kinome. Panel member name: CDK8. It is filed as functional.
For experiment [16], the target named is Serine/threonine-protein kinase 17A (Homo sapiens, UniProt Q9UEE5). It is filed as functional.
Experiment [17] deals with Cyclin-dependent kinase 7 (Homo sapiens, UniProt P50613). It is filed as functional.
In experiment [18] the target is Dual specificity tyrosine-phosphorylation-regulated kinase 1B (Homo sapiens, UniProt Q9Y463). In words: Navigating the Kinome. Panel member name: DYRK1B. It is filed as functional.
In experiment [19] the target is Dual specificity protein kinase CLK2 (Homo sapiens, UniProt P49760). It is filed as functional.
A further experiment deals with Misshapen-like kinase 1 (Homo sapiens, UniProt Q8N4C8). It is filed as functional.
Chain of Misshapen-like kinase 1 (Q8N4C8 whole entry): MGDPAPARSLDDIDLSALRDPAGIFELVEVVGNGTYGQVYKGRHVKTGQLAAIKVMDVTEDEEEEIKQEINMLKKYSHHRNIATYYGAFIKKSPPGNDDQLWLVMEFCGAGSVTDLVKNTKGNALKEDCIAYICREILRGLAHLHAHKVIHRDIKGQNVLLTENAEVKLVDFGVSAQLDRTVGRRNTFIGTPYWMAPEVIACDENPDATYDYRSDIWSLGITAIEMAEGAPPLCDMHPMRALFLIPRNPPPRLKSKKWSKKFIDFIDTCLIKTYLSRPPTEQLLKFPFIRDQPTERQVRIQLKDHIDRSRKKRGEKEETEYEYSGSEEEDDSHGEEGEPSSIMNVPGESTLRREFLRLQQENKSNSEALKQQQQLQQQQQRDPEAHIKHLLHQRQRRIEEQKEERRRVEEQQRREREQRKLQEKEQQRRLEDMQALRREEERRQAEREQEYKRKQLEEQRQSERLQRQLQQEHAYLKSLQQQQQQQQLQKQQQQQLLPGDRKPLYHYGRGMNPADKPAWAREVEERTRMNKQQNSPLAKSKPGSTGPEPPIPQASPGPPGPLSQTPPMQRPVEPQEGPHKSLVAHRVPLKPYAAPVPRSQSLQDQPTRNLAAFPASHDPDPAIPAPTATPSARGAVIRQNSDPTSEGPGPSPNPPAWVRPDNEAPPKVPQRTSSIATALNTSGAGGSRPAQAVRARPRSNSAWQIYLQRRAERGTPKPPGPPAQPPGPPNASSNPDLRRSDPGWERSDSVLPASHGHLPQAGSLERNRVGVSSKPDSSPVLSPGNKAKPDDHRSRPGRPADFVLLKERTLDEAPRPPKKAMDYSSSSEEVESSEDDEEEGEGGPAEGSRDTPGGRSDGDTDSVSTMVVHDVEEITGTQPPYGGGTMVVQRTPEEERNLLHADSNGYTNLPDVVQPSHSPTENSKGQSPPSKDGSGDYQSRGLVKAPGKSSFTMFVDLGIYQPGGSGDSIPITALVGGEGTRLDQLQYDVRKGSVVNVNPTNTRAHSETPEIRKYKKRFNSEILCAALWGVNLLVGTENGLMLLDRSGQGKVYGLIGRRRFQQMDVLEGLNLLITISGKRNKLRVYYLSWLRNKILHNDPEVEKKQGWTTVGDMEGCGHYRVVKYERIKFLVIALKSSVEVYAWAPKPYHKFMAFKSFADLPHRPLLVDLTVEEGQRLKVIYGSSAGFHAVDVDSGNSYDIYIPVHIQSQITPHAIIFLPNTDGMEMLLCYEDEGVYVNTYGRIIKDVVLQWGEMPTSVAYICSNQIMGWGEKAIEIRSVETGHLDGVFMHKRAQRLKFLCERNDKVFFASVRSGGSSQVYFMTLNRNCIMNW
Experiment [20] has as its target Serine/threonine-protein kinase PAK 1 (Homo sapiens, UniProt Q13153). It is filed as functional.
Experiment [21] addresses Serine/threonine-protein kinase Chk2 (Homo sapiens, UniProt O96017). It is filed as functional.
Experiment [22] addresses Receptor tyrosine-protein kinase erbB-4 (Homo sapiens, UniProt Q15303). It is filed as functional.
Experiment [23] addresses Casein kinase I isoform delta (Homo sapiens, UniProt P48730). It is filed as functional.
The target in experiment [24] is Ribosomal protein S6 kinase beta-1 (Homo sapiens, UniProt P23443). It is filed as functional.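 Further: measured as one member of a kinome-wide profiling panel.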
The target in experiment [25] is RAC-gamma serine/threonine-protein kinase (Homo sapiens, UniProt Q9Y243). It is filed as functional.
Experiment [26] concerns the target Non-receptor tyrosine-protein kinase TYK2 (Homo sapiens, UniProt P29597). It is filed as functional.
For experiment [27], the target named is Protein kinase C delta type (Homo sapiens, UniProt Q05655). It is filed as functional.
Chain of Protein kinase C delta type (Q05655 whole entry): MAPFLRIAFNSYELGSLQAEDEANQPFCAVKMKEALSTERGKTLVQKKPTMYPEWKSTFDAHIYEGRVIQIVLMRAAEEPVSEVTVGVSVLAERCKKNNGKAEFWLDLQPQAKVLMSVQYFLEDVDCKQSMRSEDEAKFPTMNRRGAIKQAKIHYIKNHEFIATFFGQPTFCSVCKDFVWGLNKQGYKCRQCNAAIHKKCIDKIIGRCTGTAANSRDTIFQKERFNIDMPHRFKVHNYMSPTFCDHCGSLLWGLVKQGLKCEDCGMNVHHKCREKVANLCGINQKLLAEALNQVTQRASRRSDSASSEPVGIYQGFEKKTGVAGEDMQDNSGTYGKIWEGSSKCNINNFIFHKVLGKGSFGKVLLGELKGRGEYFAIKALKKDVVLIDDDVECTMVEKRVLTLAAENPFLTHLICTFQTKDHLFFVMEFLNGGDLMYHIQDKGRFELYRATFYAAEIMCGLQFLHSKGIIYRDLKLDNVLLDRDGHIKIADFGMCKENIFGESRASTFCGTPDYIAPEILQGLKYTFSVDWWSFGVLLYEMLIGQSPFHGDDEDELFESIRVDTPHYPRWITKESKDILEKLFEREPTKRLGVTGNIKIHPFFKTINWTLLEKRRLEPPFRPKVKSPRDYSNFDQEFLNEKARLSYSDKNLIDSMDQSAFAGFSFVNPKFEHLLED
Experiment [28] addresses Vascular endothelial growth factor receptor 3 (Homo sapiens, UniProt P35916). It is filed as functional.
The target of experiment [29] is Serine/threonine-protein kinase Nek2 (Homo sapiens, UniProt P51955). It is filed as functional.
Experiment [30] concerns the target Proto-oncogene tyrosine-protein kinase Src (Homo sapiens, UniProt P12931). It is filed as functional.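 Further: SRC entry within a kinome-wide kinase profiling panel.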
The target in experiment [31] is Mitogen-activated protein kinase 1 (Homo sapiens, UniProt P28482). It is filed as functional.
Experiment [32] addresses Receptor tyrosine-protein kinase erbB-2 (Homo sapiens, UniProt P04626). In words: Navigating the Kinome. Panel member name: ERBB2. It is filed as functional.
In experiment [33] the target is Serine/threonine-protein kinase PLK1 (Homo sapiens, UniProt P53350). It is filed as functional.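 Further: PLK1 measured as one member of a kinome-wide profiling panel.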
Experiment [34] deals with Calcium/calmodulin-dependent protein kinase type 1 (Homo sapiens, UniProt Q14012). It is filed as functional.
The target of experiment [35] is Epidermal growth factor receptor (Homo sapiens, UniProt P00533).
Experiment [36] addresses Serine/threonine-protein kinase D2 (Homo sapiens, UniProt Q9BZL6). It is filed as functional.
Experiment [37] has as its target Serine/threonine-protein kinase Chk1 (Homo sapiens, UniProt O14757). It is filed as functional.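 Further: measured as one member of a kinome-wide kinase profiling panel.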
The target of experiment [38] is Mitogen-activated protein kinase 13 (Homo sapiens, UniProt O15264). It is filed as functional.
Experiment [39] deals with Interleukin-1 receptor-associated kinase 4 (Homo sapiens, UniProt Q9NWZ3). It is filed as functional.
Chain of Interleukin-1 receptor-associated kinase 4 (Q9NWZ3 whole entry): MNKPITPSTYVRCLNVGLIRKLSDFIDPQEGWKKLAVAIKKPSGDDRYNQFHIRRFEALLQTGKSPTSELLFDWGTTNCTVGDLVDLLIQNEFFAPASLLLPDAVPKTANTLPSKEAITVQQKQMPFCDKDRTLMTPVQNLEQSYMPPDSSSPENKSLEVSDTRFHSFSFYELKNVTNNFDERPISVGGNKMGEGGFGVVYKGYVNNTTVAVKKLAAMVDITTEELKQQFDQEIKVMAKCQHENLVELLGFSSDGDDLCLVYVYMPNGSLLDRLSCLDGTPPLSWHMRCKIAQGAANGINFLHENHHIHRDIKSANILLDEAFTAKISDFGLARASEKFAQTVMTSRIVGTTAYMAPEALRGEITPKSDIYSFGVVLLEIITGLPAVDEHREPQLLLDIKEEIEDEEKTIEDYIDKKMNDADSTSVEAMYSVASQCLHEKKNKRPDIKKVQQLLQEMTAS
For experiment [40], the target named is Inhibitor of nuclear factor kappa-B kinase subunit beta (Homo sapiens, UniProt O14920). It is filed as functional.
Experiment [41] concerns the target Cyclin-dependent kinase 2 (Homo sapiens, UniProt P24941). It is filed as functional.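 Further: CDK2 measured as one member of a broad kinome profiling panel.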
For another experiment, the target named is Ephrin type-A receptor 2 (Homo sapiens, UniProt P29317). It is filed as functional.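 Further: EPHA2 tested as one member of a kinome-wide kinase panel.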
For experiment [42], the target named is Inhibitor of nuclear factor kappa-B kinase subunit alpha (Homo sapiens, UniProt O15111). It is filed as functional.
Experiment [43] deals with Hepatocyte growth factor receptor (Homo sapiens, UniProt P08581). It is filed as functional.
Chain of Hepatocyte growth factor receptor (P08581 whole entry): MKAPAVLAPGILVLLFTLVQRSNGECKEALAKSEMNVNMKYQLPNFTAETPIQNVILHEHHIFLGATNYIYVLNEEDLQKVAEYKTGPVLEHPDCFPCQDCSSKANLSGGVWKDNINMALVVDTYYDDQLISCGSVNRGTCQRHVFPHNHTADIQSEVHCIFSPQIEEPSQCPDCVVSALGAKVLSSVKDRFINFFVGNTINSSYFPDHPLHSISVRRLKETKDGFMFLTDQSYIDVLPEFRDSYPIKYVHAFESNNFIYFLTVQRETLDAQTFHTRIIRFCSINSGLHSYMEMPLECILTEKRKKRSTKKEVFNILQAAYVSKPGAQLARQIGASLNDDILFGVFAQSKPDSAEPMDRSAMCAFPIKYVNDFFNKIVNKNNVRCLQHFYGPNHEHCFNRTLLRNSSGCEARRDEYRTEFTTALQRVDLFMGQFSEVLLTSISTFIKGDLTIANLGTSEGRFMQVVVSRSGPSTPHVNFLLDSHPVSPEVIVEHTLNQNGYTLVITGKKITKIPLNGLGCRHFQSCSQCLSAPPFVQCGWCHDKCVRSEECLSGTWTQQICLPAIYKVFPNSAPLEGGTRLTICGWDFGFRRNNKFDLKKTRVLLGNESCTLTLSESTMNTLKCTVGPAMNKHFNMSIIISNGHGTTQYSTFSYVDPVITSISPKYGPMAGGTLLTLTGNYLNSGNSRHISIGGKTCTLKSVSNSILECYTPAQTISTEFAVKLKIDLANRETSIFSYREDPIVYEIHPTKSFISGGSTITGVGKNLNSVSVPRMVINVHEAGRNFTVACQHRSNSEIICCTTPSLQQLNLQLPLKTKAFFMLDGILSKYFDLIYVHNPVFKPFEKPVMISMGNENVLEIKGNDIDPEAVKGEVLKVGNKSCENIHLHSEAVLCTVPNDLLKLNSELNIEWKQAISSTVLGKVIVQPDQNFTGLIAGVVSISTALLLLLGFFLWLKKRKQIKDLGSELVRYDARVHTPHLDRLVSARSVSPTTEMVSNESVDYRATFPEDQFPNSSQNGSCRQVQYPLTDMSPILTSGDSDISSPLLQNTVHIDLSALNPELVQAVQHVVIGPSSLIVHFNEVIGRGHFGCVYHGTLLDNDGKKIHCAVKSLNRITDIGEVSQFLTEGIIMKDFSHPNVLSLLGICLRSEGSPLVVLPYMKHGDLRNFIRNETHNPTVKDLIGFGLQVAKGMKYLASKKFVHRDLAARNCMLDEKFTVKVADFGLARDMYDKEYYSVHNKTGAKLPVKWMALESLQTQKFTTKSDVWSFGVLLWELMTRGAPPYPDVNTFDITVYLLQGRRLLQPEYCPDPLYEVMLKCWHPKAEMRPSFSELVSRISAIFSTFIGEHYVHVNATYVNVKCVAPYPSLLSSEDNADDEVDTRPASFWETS
The target of experiment [44] is Tyrosine-protein kinase Lyn (Homo sapiens, UniProt P07948). It is filed as functional.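 Further: lyn as one member of a kinase panel.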

Activity calls are given as the source filed them.

As for `CN(C)C1CCC(Nc2nc(Cl)cc(-c3c[nH]c4ncccc34)n2)CC1` (configuration not stated), the inhibition constant (Ki) in [1] is 2.51 µM (active); on Focal adhesion kinase 1, > 6.31 µM (inactive); in experiment [2], 251 nM (active); in [3], 2 µM (active); in experiment [4], 1 µM (active); in experiment [5], 1.26 µM (active). Besides, the Ki was > 6.31 µM (inactive) in experiment [6]; 316 nM (active) in experiment [7]; 1.58 µM (active) in experiment [8]; > 3.16 µM (inactive) in experiment [9]; 15.8 nM (active) in [10]; 501 nM (active) in experiment [11]. Further, the Ki is > 2.51 µM (inactive) in experiment [12]; 398 nM (active) in experiment [13]; 25.1 nM (active) in experiment [14]; 15.8 nM (active) in [15]; 126 nM (active) in [16]; 100 nM (active) in [17]. In addition, the Ki in experiment [18] is 25.1 nM (active); in [19], 39.8 nM (active); at Misshapen-like kinase 1, 31.6 nM (active).

With `NC(COc1cncc(-c2cc3ccncc3s2)c1)Cc1c[nH]c2ccccc12` (configuration not stated), the Ki in [20] was 794 nM (active); in [21], 398 nM (active); in [22] it was > 3.98 µM (inactive); in experiment [23], 794 nM (active); in [24], 6.31 nM (active); in experiment [25], 25.1 nM (active). Further, the Ki in experiment [26] was > 2 µM (inactive); in experiment [27], 50.1 nM (active); in experiment [28] it was 100 nM (active); in [29], > 10 µM (inactive); in experiment [30], > 2.51 µM (inactive); in experiment [31], 251 nM (active). Besides, the Ki in experiment [32] was > 1.58 µM (inactive); in experiment [33], > 7.94 µM (inactive); in [34] it was 3.16 µM (active); in [35] it was 1.58 µM (active); in experiment [36], 316 nM (active); in experiment [37], 3.98 µM (active). Moreover, the Ki in experiment [38] is 7.94 µM (active); in experiment [39] it was 1.58 µM (active); in [40] it was > 3.16 µM (inactive); in [41] it was 158 nM (active); at Ephrin type-A receptor 2, > 3.16 µM (inactive); in experiment [42], > 3.98 µM (inactive). The Ki in [43] was > 3.16 µM (inactive); in [44], > 1.58 µM (inactive).

One may read the Ki as a measure of affinity in units of concentration, obtained from inhibition or displacement.

(Values after ChEMBL document CHEMBL1201862, “PubChem BioAssay data set” (2004).)
